Laboratory results: patent US10206907B2, “Compounds useful for the treatment of degenerative and inflammatory diseases” (GALAPAGOS NV, priority 2008, dated 2019)
Like-named read-outs stand apart in the source and are kept apart here.

Assays:
[1] = system: JAK-STAT signalling in HeLa cells; experiment: JAK-STAT signalling assay (OSM-triggered pSTAT1(2)-luciferase reporter in HeLa cells); assay type: cell-based; conditions: Homo sapiens, read-out: STAT signalling EC50
Procedure, shortened: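 Read-out is oncostatin M–driven pSTAT1(2)-luciferase activity, corrected by co-transfected LacZ β-galactosidase, in transiently transfected HeLa cells cultured overnight at 37 °C, 10% CO2. Inhibition percentages against positive and negative controls were plotted across doses to derive EC50.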

MMP13 in SW1353 cells = experiment: OSM/IL-1β signaling assay (MMP13 levels in SW1353 cells); assay type: cell-based; conditions: Homo sapiens, read-out: MMP13 EC50;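 further: secreted MMP13 captured by antibody, activated with APMA and its activity read by fluorescence, inhibition scaled between vehicle-treated triggered wells (0%) and untriggered wells (100%)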
Method: The cells were seeded in 96 well plates at 15,000 cells/well in a volume of 120 μL DMEM (Invitrogen) containing 10% (v/v) FBS and 1% penicillin/streptomycin (InVitrogen) incubated at 37° C. […] MMP13 activity was measured using an antibody capture activity assay. […] Next the wells were washed twice with PBS+0.05% Tween followed by MMP13 activation by addition of 35 μL of a 1.5 mM 4-Aminophenylmercuric acetate (APMA) (Sigma, A9563) solution and incubation at 37° C. for 1 hour. […] Percentage inhibition=((fluorescence determined in the presence of vehicle−fluorescence determined for sample with test compound present) divided by (fluorescence determined in the presence of vehicle−fluorescence determined for sample without trigger))*100%.

Caco-2 cells = experiment: Caco2 permeability (bi-directional); assay type: in vitro ADME, human; conditions: Caco-2, apical to basolateral
Procedure, shortened: (§1)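 Compound concentrations in both chambers were measured by LC-MS/MS after 1 h incubation at 37 °C on an orbital shaker. Efflux ratio is PappB>A over PappA>B. Lucifer Yellow (50 μM in donor) confirmed layer integrity, with permeability of ≤100 nm/s required.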

[2] = system: Collagen Induced Arthritis (CIA); experiment: Rat CIA model; assay type: in vivo; conditions: therapeutic dosing day 16 to day 30, p.o., statistical significance in several of the readouts
Method: Completed Freund's adjuvant (CFA) and incomplete Freund's adjuvant (IFA) were purchased from Difco. Bovine collagen type II (CII), lipopolysaccharide (LPS), and Enbrel were obtained from Chondrex (Isle d'Abeau, France); Sigma (P4252, L'Isle d'Abeau, France), Whyett (25 mg injectable syringe, France) Acros Organics (Palo Alto, Calif.), respectively. All other reagents used were of reagent grade and all solvents were of analytical grade.
Dark Agouti rats (male, 7-8 weeks old) were obtained from Harlan Laboratories (Maison-Alfort, France). Rats were kept on a 12 hours light/dark cycle (0700-1900). The temperature was maintained at 22° C., and food and water were provided ad libitum.
One day before the experiment, CII solution (2 mg/mL) was prepared with 0.05 M acetic acid and stored at 4° C. Just before the immunization, equal volumes of adjuvant (IFA) and CII were mixed by a homogenizer in a pre-cooled glass bottle in an ice water bath. Extra adjuvant and prolonged homogenization might be required if an emulsion is not formed. 0.2 mL of the emulsion was injected intradermally at the base of the tail of each rat on day 1, a second booster intradermal injection (CII solution at 2 mg/mL in CFA 0.1 mL saline) was performed on day 9. This immunization method was modified from published methods (Sims N A et al., (2004) Targeting osteoclasts with zoledronic acid prevents bone destruction in collagen-induced arthritis, Arthritis Rheum. 50 2338-2346; Jou et al., 2005).
The therapeutic effects of the test compounds were tested in the rat CIA model. Rats were randomly divided into equal groups and each group contained 10 rats. All rats were immunized on day 1 and boosted on day 9. Therapeutic dosing lasted from day 16 to day 30. The negative control group was treated with vehicle (MC 0.5%) and the positive control group with Enbrel (10 mg/kg, 3× week, s.c.). A compound of interest was typically tested at 3 doses, e.g. 3, 10, 30 mg/kg, p.o.
Arthritis was scored according the method of Khachigian 2006, Lin et al 2007 and Nishida et al. 2004. The swelling of each of the four paws was ranked with the arthritic score as follows: 0-no symptoms; 1-mild, but definite redness and swelling of one type of joint such as the ankle or wrist, or apparent redness and swelling limited to individual digits, regardless of the number of affected digits; 2-moderate redness and swelling of two or more types of joints; 3-severe redness and swelling of the entire paw including digits; 4-maximally inflamed limb with involvement of multiple joints (maximum cumulative clinical arthritis score 16 per animal) (Nishida et al., 2004).
Clinically, body weight loss is associated with arthritis (Shelton et al., 2005; Argiles et al., 1998; Rall, 2004; Walsmith et al., 2004). […] The change in body weight (%) after onset of arthritis was calculated as follows: […]
X-ray photos were taken of the hind paws of each individual animal. A random blind identity number was assigned to each of the photos, and the severity of bone erosion was ranked by two independent scorers with the radiological Larsen's score system as follows: 0-normal with intact bony outlines and normal joint space; 1—slight abnormality with any one or two of the exterior metatarsal bones showing slight bone erosion; 2—definite early abnormality with any three to five of the exterior metatarsal bones showing bone erosion; 3—medium destructive abnormality with all the exterior metatarsal bones as well as any one or two of the interior metatarsal bones showing definite bone erosions; 4—severe destructive abnormality with all the metatarsal bones showing definite bone erosion and at least one of the inner metatarsal joints completely eroded leaving some bony joint outlines partly preserved; 5—mutilating abnormality without bony outlines. This scoring system is a modification from Salvcmini et al., 2001; Bush et al., 2002; Sims et al., 2004; Jou et al., 2005. […]

TNF-alpha release = experiment: Septic shock model (LPS-induced TNF release); assay type: in vivo, mouse; conditions: 30 mg/kg po, BALB/cJ mice, LPS ip; statistically significant
Method: Injection of lipopolysaccharide (LPS) induces a rapid release of soluble tumour necrosis factor (TNF-alpha) into the periphery. This model is used to analyse prospective blockers of TNF release in vivo.
Six BALB/cJ female mice (20 g) per group were treated at the intended dosing once, po. Thirty minutes later, LPS (15 μg/kg; E. Coli serotype 0111:B4) was injected ip. Ninety minutes later, mice were euthanized and blood was collected. Circulating TNF alpha levels were determined using commercially available ELISA kits. Dexamethasone (5 μg/kg) was used as a reference anti-inflammatory compound. Selected compounds are tested at one or multiple doses, e.g. 3 and/or 10 and/or 30 mg/kg, po.

[3] = Microsomal stability, human liver microsomes; assay type: in vitro ADME; conditions: percentage of compound remaining after 60 minutes, 3 μM compound
Procedure, shortened: (§2)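 Percent parent remaining after 60 min was determined by LCMS against a time-zero sample quenched before microsome addition. Incubations ran at 37°C with liver microsomes and a G6PDH-based NADPH-regenerating cofactor mix. Quench was MeOH or ACN (1:1).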

[4] = Microsomal stability, rat liver microsomes; assay type: in vitro ADME; conditions: percentage of compound remaining after 60 minutes, 3 μM compound
Procedure, shortened: as §2

[5] = Caco2 permeability (bi-directional); assay type: in vitro ADME, human; conditions: human, pH 7.4; Caco-2, apical to basolateral; read-out: Papp (A2B)
Procedure, shortened: as §1

EC50 ([1]; HeLa cells, OSM-triggered pSTAT1(2)-luciferase reporter) [nM] | EC50 (MMP13 in SW1353 cells; SW1353 cells, OSM and IL-1β triggered, MMP13 levels 48 hours after triggering) [nM] | Papp (A2B) (Caco-2 cells) | EC50 ([1]; HeLa) [nM] | EC50 (MMP13 in SW1353 cells; SW1353, 48 h) [nM] | Microsomal Stability Human (%) [3] | Microsomal Stability Rat (%) [4] | Papp A→B at 1 h, 10 µM [5] [×10⁻⁶ cm/s] | Compound | efficacy in all readouts of the rat CIA study [2] | reduction in the TNF release (TNF-alpha release) [%]
501 to 1000 | > 1000 | 0.2! cmx10-6sec-1 |  |  |  |  |  | N#CC1CN(C(=O)c2ccc(-c3cccc4nc(NC(=O)C5CC5)nn34)cc2)C1 [Compound 328, Cyclopropanecarboxylic acid {5-[4-(3-cyano-azetidine-1-carbonyl)-phenyl]-[1,2,4]triazolo[1,5-a]pyridin-2-yl)-amide] |  | 
 |  |  | 501 to 1000 | > 1000 | **** (**** 76-100) | *** (*** 51-75) | 4.65 | O=C(Nc1nc2cccc(-c3ccc(CN4CCS(=O)(=O)CC4)cc3)n2n1)C1CC1 [Compound 200, Cyclopropanecarboxylic acid {5-[4-(1,1-dioxo-thiomorpholin-4-ylmethyl)-phenyl]-[1,2,4]triazolo[1,5-a]pyridin-2-yl}-amide] | efficacious in all readouts | > 50
